Data published in ChEMBL document CHEMBL5149987, “Design, Synthesis, and Evaluation of WD-Repeat-Containing Protein 5 (WDR5) Degraders” (J Med Chem, 2021).
Active and inactive are the calls of the source. The calls are words filed in the database; no cut-off is given here.

Experiments:
[1] = target: T1, WD repeat-containing protein 5 (Homo sapiens, UniProt P61964)
Description: Binding affinity to recombinant WDR5 (unknown origin) expressed in Escherichia coli BL21 assessed as shift in melting temperature by DSF assay

[2] = target: T1, WD repeat-containing protein 5; test: (§1) Displacement of N-(4'-((17-(5,5-difluoro-7-(1H-pyrrol-2-yl)-5H-5l4,6l4-dipyrrolo[1,2-c:2',1'-f][1,3,2]diazaborinin-3-yl)-15-oxo-4,7,10-trioxa-14-azaheptadecyl)carbamoyl)-4-(4-methylpiperazin-1-yl)-[1,1'-biphenyl]-3-yl)-6-hydroxy-4-(trifluoromethyl)nicotinamide tracer from N-/C-terminal NanoLuc-fused full-length WDR5 (unknown origin) transfected in HEK293T cells incubated for 2 hrs by NanoBRET assay; type: cell-based
[3] = target: T1, WD repeat-containing protein 5; test: as §1, with “cell lysate” for “cells”; type: subcellular
MV4-11 [4] = test: Cytotoxicity against human MV4-11 cells expressing VHL assessed as defect in cell proliferation at 5 to 10 uM incubated for 15 days with replacement of fresh medium containing compound on every third day; type: functional, cell-based; conditions: dose 5-10 µM, time 15.0 day
MV4-11 [5] = test: Cytotoxicity against human MV4-11 cells assessed as defect in cell proliferation at 10 uM incubated for 15 days with replacement of fresh medium containing compound on every third day; type: functional, cell-based; conditions: time 15.0 day
[6] = target: T1, WD repeat-containing protein 5; remark: listed apart in the source
Description: Binding affinity to recombinant WDR5 (unknown origin) expressed in Escherichia coli BL21 assessed as change in enthalpy by isothermal titration calorimetry

[7] = target: T1, WD repeat-containing protein 5; test: Binding affinity to recombinant WDR5 (unknown origin) expressed in Escherichia coli BL21 assessed as dissociation constant by isothermal titration calorimetry
[8] = target: T1, WD repeat-containing protein 5; remark: listed apart in the source
Description: Binding affinity to recombinant WDR5 (unknown origin) expressed in Escherichia coli BL21 assessed as change in entropy by isothermal titration calorimetry

Structure (SMILES)	deltaTm [1] [K]	IC50 [2] [µM]	IC50 [3] [µM]	Activity (MV4-11 [4])	Activity (MV4-11 [5])	deltaH [6] [kcal/mol]	deltaTm ([1]; filed as modulator) [K]	Kd [7] [µM]	TdeltaS [8] [kcal/mol]
Cc1ncsc1-c1ccc(CNC(=O)[C@@H]2C[C@@H](O)CN2C(=O)[C@@H](NC(=O)CCOCCOCCOCCOc2ccc(-c3cn4c(n3)CCC4)cc2CNC(=O)Cc2ccc(Cl)c(Cl)c2)C(C)(C)C)cc1	3.6	≥ 50	≥ 50						
COc1cc(C(=O)NCc2ccc(CNC(=O)c3ccc(-c4ccc(N5CCN(C)CC5)c(NC(=O)c5c[nH]c(=O)cc5C(F)(F)F)c4)cc3)cc2)ccc1NC(=O)[C@@H]1N[C@@H](CC(C)(C)C)[C@](C#N)(c2ccc(Cl)cc2F)[C@H]1c1cccc(Cl)c1F	0.7	≥ 50	≥ 50						
Cc1ncsc1-c1ccc(CNC(=O)[C@@H]2C[C@@H](O)CN2C(=O)[C@@H](NC(=O)CCOCCOCCOCCOCCOCCOCCOCCOc2ccc(-c3cn4c(n3)CCC4)cc2CNC(=O)Cc2ccc(Cl)c(Cl)c2)C(C)(C)C)cc1	4.6	≥ 50	≥ 50						
COc1cc(C(=O)NCCOCCNC(=O)c2ccc(-c3ccc(N4CCN(C)CC4)c(NC(=O)c4c[nH]c(=O)cc4C(F)(F)F)c3)cc2)ccc1NC(=O)[C@@H]1N[C@@H](CC(C)(C)C)[C@](C#N)(c2ccc(Cl)cc2F)[C@H]1c1cccc(Cl)c1F	0.9	≥ 50	≥ 50						
Cc1ncsc1-c1ccc(CNC(=O)[C@@H]2C[C@@H](O)CN2C(=O)[C@@H](NC(=O)CCOCCOCCOCCOCCOCCOc2ccc(-c3cn4c(n3)CCC4)cc2CNC(=O)Cc2ccc(Cl)c(Cl)c2)C(C)(C)C)cc1	4.3	≥ 50	≥ 50						
Cc1ncsc1-c1ccc(CNC(=O)[C@@H]2C[C@@H](O)CN2C(=O)[C@@H](NC(=O)CCOCCOCCOCCOCCOCCOCCOc2ccc(-c3cn4c(n3)CCC4)cc2CNC(=O)Cc2ccc(Cl)c(Cl)c2)C(C)(C)C)cc1	4.5	≥ 50	≥ 50						
Cc1ncsc1-c1ccc(CNC(=O)[C@@H]2C[C@@H](O)CN2C(=O)[C@@H](NC(=O)CCOCCOCCOc2ccc(-c3cn4c(n3)CCC4)cc2CNC(=O)Cc2ccc(Cl)c(Cl)c2)C(C)(C)C)cc1				Active	Active				
COc1ccc(-c2cn3c(n2)CCC3)cc1CNC(=O)Cc1ccc(Cl)c(Cl)c1		≥ 50	≥ 50			-10	4.2	125	0.7
Cc1ncsc1-c1ccc(CNC(=O)[C@@H]2C[C@@H](O)CN2C(=O)[C@@H](NC(=O)CCOCCOc2ccc(-c3cn4c(n3)CCC4)cc2CNC(=O)Cc2ccc(Cl)c(Cl)c2)C(C)(C)C)cc1	7	≥ 50	≥ 50						
Cc1ncsc1-c1ccc(CNC(=O)[C@@H]2C[C@@H](O)CN2C(=O)[C@@H](NC(=O)CCOCCOCCOCCOCCOc2cc(-c3cn4c(n3)CCC4)ccc2CNC(=O)Cc2ccc(Cl)c(Cl)c2)C(C)(C)C)cc1	3.4	≥ 50	≥ 50						
COc1cc(C(=O)NCCOCCOCCOCCOCCOCCOCCOCCNC(=O)c2ccc(-c3ccc(N4CCN(C)CC4)c(NC(=O)c4c[nH]c(=O)cc4C(F)(F)F)c3)cc2)ccc1NC(=O)[C@@H]1N[C@@H](CC(C)(C)C)[C@](C#N)(c2ccc(Cl)cc2F)[C@H]1c1cccc(Cl)c1F	0.3	≥ 50	≥ 50						
